In PubChem BioAssay (NCI):
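Test compounds were applied to cells in 96-well plates for 48 hours at 5 doses. TGI marks complete inhibition of growth.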

Experiments:
Assay in all cases: NCI tumour cell line growth inhibition, 48 h
786-0 renal = tested on: 786-0 renal
A498 renal = tested on: A498 renal
A549 NSCLC = tested on: A549 NSCLC
ACHN renal = tested on: ACHN renal
BT-549 breast = tested on: BT-549 breast
CAKI-1 renal = tested on: CAKI-1 renal
CCRF-CEM leukemia = tested on: CCRF-CEM leukemia
COLO 205 colon = tested on: COLO 205 colon
DU-145 prostate = tested on: DU-145 prostate
EKVX NSCLC = tested on: EKVX NSCLC
HCC-2998 colon = tested on: HCC-2998 colon
HCT-116 colon = tested on: HCT-116 colon
HCT-15 colon = tested on: HCT-15 colon
HL-60(TB) leukemia = tested on: HL-60(TB) leukemia
HOP-62 NSCLC = tested on: HOP-62 NSCLC
HOP-92 NSCLC = tested on: HOP-92 NSCLC
HS 578T breast = tested on: HS 578T breast
HT29 colon = tested on: HT29 colon
IGROV1 ovarian = tested on: IGROV1 ovarian
K-562 leukemia = tested on: K-562 leukemia
KM12 colon = tested on: KM12 colon
LOX IMVI melanoma = tested on: LOX IMVI melanoma
M14 melanoma = tested on: M14 melanoma
MALME-3M melanoma = tested on: MALME-3M melanoma
MCF7 breast = tested on: MCF7 breast
MDA-MB-231 breast = tested on: MDA-MB-231 breast
MDA-MB-435 = tested on: MDA-MB-435
MDA-N = tested on: MDA-N
MOLT-4 leukemia = tested on: MOLT-4 leukemia
NCI-H226 lung = tested on: NCI-H226 lung
NCI-H23 lung = tested on: NCI-H23 lung
NCI-H460 lung = tested on: NCI-H460 lung
NCI-H522 lung = tested on: NCI-H522 lung
NCI/ADR-RES ovarian = tested on: NCI/ADR-RES ovarian
OVCAR-3 ovarian = tested on: OVCAR-3 ovarian
OVCAR-4 ovarian = tested on: OVCAR-4 ovarian
OVCAR-5 ovarian = tested on: OVCAR-5 ovarian
OVCAR-8 ovarian = tested on: OVCAR-8 ovarian
PC-3 prostate = tested on: PC-3 prostate
RPMI-8226 leukemia = tested on: RPMI-8226 leukemia
RXF 393 renal = tested on: RXF 393 renal
SF-268 CNS = tested on: SF-268 CNS
SF-295 CNS = tested on: SF-295 CNS
SF-539 CNS = tested on: SF-539 CNS
SK-MEL-2 melanoma = tested on: SK-MEL-2 melanoma
SK-MEL-28 melanoma = tested on: SK-MEL-28 melanoma
SK-MEL-5 melanoma = tested on: SK-MEL-5 melanoma
SK-OV-3 ovarian = tested on: SK-OV-3 ovarian
SN12C renal = tested on: SN12C renal
SNB-19 CNS = tested on: SNB-19 CNS
SNB-75 CNS = tested on: SNB-75 CNS
SR leukemia = tested on: SR leukemia
SW-620 colon = tested on: SW-620 colon
T-47D breast = tested on: T-47D breast
TK-10 renal = tested on: TK-10 renal
U251 CNS = tested on: U251 CNS
UACC-257 melanoma = tested on: UACC-257 melanoma
UACC-62 melanoma = tested on: UACC-62 melanoma
UO-31 renal = tested on: UO-31 renal
DLD-1 colon = tested on: DLD-1 colon
HOP-18 NSCLC = tested on: HOP-18 NSCLC
LXFL 529 NSCLC = tested on: LXFL 529 NSCLC
M19-MEL melanoma = tested on: M19-MEL melanoma

Molecule `c1cc(CSSCc2ccncc2)ccn1` has a TGI (786-0 renal) greater than 100 µM, a TGI (A498 renal) greater than 100 µM and a TGI (A549 NSCLC) greater than 100 µM. The TGI (ACHN renal) was greater than 100 µM, the TGI (BT-549 breast) was greater than 100 µM and the TGI (CAKI-1 renal) was greater than 100 µM. The TGI (CCRF-CEM leukemia) was 24.2 µM, the TGI (COLO 205 colon) was 49.2 µM and the TGI (DU-145 prostate) was greater than 66.4 µM. The TGI (EKVX NSCLC) was greater than 100 µM, the TGI (HCC-2998 colon) was 58.7 µM and the TGI (HCT-116 colon) was greater than 100 µM. It also gave a TGI (HCT-15 colon) greater than 100 µM, a TGI (HL-60(TB) leukemia) of 42.4 µM and a TGI (HOP-62 NSCLC) greater than 100 µM. It also gave a TGI (HOP-92 NSCLC) greater than 100 µM, a TGI (HS 578T breast) of 76 µM and a TGI (HT29 colon) greater than 100 µM. For the same molecule, the TGI (IGROV1 ovarian) was greater than 100 µM, the TGI (K-562 leukemia) was greater than 100 µM and the TGI (KM12 colon) was greater than 100 µM. For the same molecule, the TGI (LOX IMVI melanoma) was greater than 100 µM, the TGI (M14 melanoma) was greater than 82.6 µM and the TGI (MALME-3M melanoma) was greater than 100 µM. The TGI (MCF7 breast) was greater than 100 µM, the TGI (MDA-MB-231 breast) was greater than 100 µM and the TGI (MDA-MB-435) was greater than 68.3 µM. The TGI (MDA-N) was 62.9 µM, the TGI (MOLT-4 leukemia) was 23.7 µM and the TGI (NCI-H226 lung) was greater than 85.5 µM. It also gave a TGI (NCI-H23 lung) greater than 93.2 µM, a TGI (NCI-H460 lung) greater than 84.9 µM and a TGI (NCI-H522 lung) of 60.2 µM. The TGI (NCI/ADR-RES ovarian) was greater than 85.3 µM, the TGI (OVCAR-3 ovarian) was greater than 100 µM and the TGI (OVCAR-4 ovarian) was greater than 100 µM. It also gave a TGI (OVCAR-5 ovarian) greater than 100 µM, a TGI (OVCAR-8 ovarian) greater than 100 µM and a TGI (PC-3 prostate) greater than 100 µM. The TGI (RPMI-8226 leukemia) was greater than 65.3 µM, the TGI (RXF 393 renal) was greater than 75.7 µM and the TGI (SF-268 CNS) was greater than 94.3 µM. The TGI (SF-295 CNS) was greater than 100 µM, the TGI (SF-539 CNS) was 50.2 µM and the TGI (SK-MEL-2 melanoma) was 82.1 µM. It also gave a TGI (SK-MEL-28 melanoma) greater than 100 µM, a TGI (SK-MEL-5 melanoma) of 56.6 µM and a TGI (SK-OV-3 ovarian) greater than 100 µM. For the same molecule, the TGI (SN12C renal) was greater than 100 µM, the TGI (SNB-19 CNS) was greater than 100 µM and the TGI (SNB-75 CNS) was greater than 100 µM. For the same molecule, the TGI (SR leukemia) was 30.3 µM, the TGI (SW-620 colon) was greater than 100 µM and the TGI (T-47D breast) was greater than 100 µM. For the same molecule, the TGI (TK-10 renal) was greater than 100 µM, the TGI (U251 CNS) was greater than 70.9 µM and the TGI (UACC-257 melanoma) was greater than 100 µM. It also gave a TGI (UACC-62 melanoma) greater than 100 µM and a TGI (UO-31 renal) greater than 100 µM.
For `CC(=O)Oc1c2c(c(CC=C(C)C)c3c1C(=O)C1=C[C@@H]4CC5C(C)(C)OC(C/C=C(/C)C(=O)O)(C4=O)[C@@]15O3)OC(C)(CCC=C(C)C)C=C2` (stereo not given in full), the TGI (786-0 renal) was 0.364 µM, the TGI (A498 renal) was 1.82 µM and the TGI (A549 NSCLC) was 0.999 µM. It also gave a TGI (ACHN renal) of 0.279 µM, a TGI (BT-549 breast) of 0.461 µM and a TGI (CAKI-1 renal) of 0.409 µM. The TGI (CCRF-CEM leukemia) was 4.75 µM, the TGI (COLO 205 colon) was 0.421 µM and the TGI (DU-145 prostate) was 0.838 µM. It also gave a TGI (EKVX NSCLC) of 0.839 µM, a TGI (HCC-2998 colon) of 1.62 µM and a TGI (HCT-116 colon) of 0.316 µM. For the same molecule, the TGI (HCT-15 colon) was 0.978 µM, the TGI (HL-60(TB) leukemia) was 10.6 µM and the TGI (HOP-62 NSCLC) was 1.88 µM. The TGI (HOP-92 NSCLC) was 1.05 µM, the TGI (HS 578T breast) was 1.44 µM and the TGI (HT29 colon) was 0.598 µM. It also gave a TGI (IGROV1 ovarian) of 0.294 µM, a TGI (KM12 colon) of 0.897 µM and a TGI (LOX IMVI melanoma) of 0.247 µM. For the same molecule, the TGI (M14 melanoma) was 0.814 µM, the TGI (MALME-3M melanoma) was 0.558 µM and the TGI (MCF7 breast) was 1.4 µM. The TGI (MDA-MB-231 breast) was 0.779 µM, the TGI (MDA-MB-435) was 0.348 µM and the TGI (MDA-N) was 0.536 µM. The TGI (MOLT-4 leukemia) was 32 µM, the TGI (NCI-H226 lung) was 0.834 µM and the TGI (NCI-H23 lung) was 1.01 µM. The TGI (NCI-H460 lung) was 1.97 µM, the TGI (NCI-H522 lung) was 0.281 µM and the TGI (NCI/ADR-RES ovarian) was 2.7 µM. For the same molecule, the TGI (OVCAR-3 ovarian) was 0.922 µM, the TGI (OVCAR-4 ovarian) was 0.567 µM and the TGI (OVCAR-5 ovarian) was 1.16 µM. For the same molecule, the TGI (OVCAR-8 ovarian) was 0.747 µM, the TGI (PC-3 prostate) was 1.24 µM and the TGI (RPMI-8226 leukemia) was 0.538 µM. It also gave a TGI (RXF 393 renal) of 0.336 µM, a TGI (SF-268 CNS) of 1.56 µM and a TGI (SF-295 CNS) of 1.67 µM. For the same molecule, the TGI (SF-539 CNS) was 0.252 µM, the TGI (SK-MEL-2 melanoma) was 0.982 µM and the TGI (SK-MEL-28 melanoma) was 0.378 µM. The TGI (SK-MEL-5 melanoma) was 0.737 µM, the TGI (SK-OV-3 ovarian) was 1.91 µM and the TGI (SN12C renal) was 0.53 µM. It also gave a TGI (SNB-19 CNS) of 1.38 µM, a TGI (SNB-75 CNS) of 1.39 µM and a TGI (SR leukemia) of 53.9 µM. It also gave a TGI (SW-620 colon) of 0.241 µM, a TGI (T-47D breast) of 0.439 µM and a TGI (TK-10 renal) of 0.585 µM. It also gave a TGI (U251 CNS) of 0.339 µM, a TGI (UACC-257 melanoma) of 1.36 µM and a TGI (UACC-62 melanoma) of 0.86 µM. It also gave a TGI (UO-31 renal) of 0.526 µM.
In the case of `Nc1c(C(=O)N/N=C/c2ccc(Cl)cc2)sc(=S)n1-c1ccccc1`, the TGI (A498 renal) is reported as greater than 100 µM, the TGI (A549 NSCLC) is reported as greater than 100 µM and the TGI (ACHN renal) is reported as greater than 100 µM. The TGI (CCRF-CEM leukemia) was greater than 100 µM, the TGI (COLO 205 colon) was greater than 100 µM and the TGI (DLD-1 colon) was greater than 100 µM. For the same molecule, the TGI (HCC-2998 colon) was greater than 100 µM, the TGI (HCT-116 colon) was greater than 100 µM and the TGI (HL-60(TB) leukemia) was greater than 100 µM. It also gave a TGI (HOP-18 NSCLC) greater than 100 µM, a TGI (HOP-62 NSCLC) greater than 100 µM and a TGI (HOP-92 NSCLC) greater than 100 µM. The TGI (HT29 colon) was greater than 100 µM, the TGI (IGROV1 ovarian) was greater than 100 µM and the TGI (K-562 leukemia) was greater than 100 µM. The TGI (KM12 colon) was greater than 100 µM, the TGI (LXFL 529 NSCLC) was greater than 100 µM and the TGI (M19-MEL melanoma) was greater than 100 µM. For the same molecule, the TGI (NCI-H226 lung) was greater than 100 µM, the TGI (NCI-H23 lung) was greater than 100 µM and the TGI (NCI-H460 lung) was greater than 100 µM. It also gave a TGI (NCI-H522 lung) of 91.9 µM, a TGI (OVCAR-3 ovarian) greater than 100 µM and a TGI (OVCAR-5 ovarian) greater than 100 µM. The TGI (OVCAR-8 ovarian) was greater than 100 µM, the TGI (SF-268 CNS) was greater than 100 µM and the TGI (SF-295 CNS) was greater than 100 µM. The TGI (SF-539 CNS) was greater than 100 µM, the TGI (SK-MEL-28 melanoma) was greater than 100 µM and the TGI (SK-MEL-5 melanoma) was greater than 100 µM. It also gave a TGI (SK-OV-3 ovarian) greater than 100 µM, a TGI (SNB-19 CNS) greater than 100 µM and a TGI (SNB-75 CNS) greater than 100 µM. The TGI (SW-620 colon) was greater than 100 µM, the TGI (TK-10 renal) was greater than 100 µM and the TGI (UACC-257 melanoma) was greater than 100 µM. It also gave a TGI (UACC-62 melanoma) greater than 100 µM and a TGI (UO-31 renal) greater than 100 µM.
